The values below come from patent US20080132555A1, “PREPARATION AND UTILITY OF SUBSTITUTED PHENYLTETRAZOLES” (AUSPEX PHARMACEUTICALS, INC., priority 2006, published 2008).

For series [1] the following is noted: 5 microgram per mL. On the procedure: Liver microsomal stability assays were conducted at 1 mg per mL liver microsome protein with an NADPH-generating system in 2% NaHCO3 (2.2 mM NADPH, 25.6 mM glucose 6-phosphate, 6 units per mL glucose 6-phosphate dehydrogenase and 3.3 mM MgCl2). Test compounds were prepared as solutions in 20% acetonitrile-water and added to the assay mixture (final assay concentration 5 microgram per mL) and incubated at 37° C. Final concentration of acetonitrile in the assay were <1%. Aliquots (50 μL) were taken out at times 0, 15, 30, 45, and 60 minutes, and diluted with ice cold acetonitrile (200 μL) to stop the reactions. Samples were centrifuged at 12000 RPM for 10 minutes to precipitate proteins. Supernatants were transferred to microcentrifuge tubes and stored for LC/MS/MS analysis of the degradation half-life of the test compounds.

For series [2] the following is noted: cited from earlier work.

With `[2H]C([2H])(O)c1c(Cl)nc(C([2H])([2H])CCC)n1Cc1ccc(-c2ccccc2-c2nn[nH]n2)cc1` [Example 6, d4-{2-Butyl-5-chloro-3-[2′-(2H-tetrazol-5-yl)-biphenyl-4-ylmethyl]-3H-imidazol-4-yl}-methanol], the “increase in the degradation half-life as compared to the non-isotopically enriched drug (losartan)” value in series [1] is given as 30-180%.
Still for that read-out and setting: in the case of `[2H]C(c1nc(Cl)c(C([2H])([2H])O)n1Cc1ccc(-c2ccccc2-c2nn[nH]n2)cc1)C([2H])([2H])C([2H])([2H])C([2H])([2H])[2H]` (stereo not shown) [Example 4, d10-{2-Butyl-5-chloro-3-[2′-(2H-tetrazol-5-yl)-biphenyl-4-ylmethyl]-3H-imidazol-4-yl}-methanol] it was 30-180%; in that of `[2H]C(O)c1c(Cl)nc(C([2H])([2H])CCC)n1Cc1ccc(-c2ccccc2-c2nn[nH]n2)cc1` (stereo not shown) [Example 5, d3-{2-Butyl-5-chloro-3-[2′-(2H-tetrazol-5-yl)-biphenyl-4-ylmethyl]-3H-imidazol-4-yl}-methanol], 30-180%; in that of `[2H]C(c1nc(Cl)c(CO)n1Cc1ccc(-c2ccccc2-c2nn[nH]n2)cc1)C([2H])([2H])C([2H])([2H])C([2H])([2H])[2H]` (stereo not shown) [Example 2, d8-{2-Butyl-5-chloro-3-[2′-(2H-tetrazol-5-yl)-biphenyl-4-ylmethyl]-3H-imidazol-4-yl}-methanol], 30-180%.
As for `CCCCc1nc(Cl)c(CO)n1Cc1ccc(-c2ccccc2-c2nn[nH]n2)cc1` [losartan, Losartan], the “lowering of the rate of new-onset Diabetes Mellitus relative to the β-blocker atenolol” value in series [2] is 25%.
Consider `[2H]C([2H])(O)c1c(Cl)nc(CCCC)n1Cc1ccc(-c2ccccc2-c2nn[nH]n2)cc1` [Example 1, d2-{2-Butyl-5-chloro-3-[2′-(2H-tetrazol-5-yl)-biphenyl-4-ylmethyl]-3H-imidazol-4-yl}-methanol], for which the “increase in the degradation half-life as compared to the non-isotopically enriched drug (losartan)” value in series [1] is on record as 30-180%.
The same measure, in the same setting: in the case of `[2H]C(O)c1c(Cl)nc(C([2H])C([2H])([2H])C([2H])([2H])C([2H])([2H])[2H])n1Cc1ccc(-c2ccccc2-c2nn[nH]n2)cc1` (stereo not shown) [Example 3, d9-{2-Butyl-5-chloro-3-[2′-(2H-tetrazol-5-yl)-biphenyl-4-ylmethyl]-3H-imidazol-4-yl}-methanol] it was 30-180%.
